Assay [1] addresses human CB2 receptor (CNR2) (Homo sapiens (Human), UniProt P34972). Description: Radioligand binding assay ([3H]-CP-55,940), membranes of HEK cells expressing human CNR2. The conditions noted are these: 2.6 nM [3H]-CP-55,940, HEK cell membranes, 1 h at 30° C. Here is the method: (§1) Radioligand Binding Assay
(§2) The affinity of the compounds of the invention for cannabinoid receptors was determined using recommended amounts of membrane preparations (PerkinElmer) of human embryonic kidney (HEK) cells expressing the human CNR1 or CNR2 receptors in conjunction with 1.5 or 2.6 nM [3H]-CP-55,940 (Perkin Elmer) as radioligand, respectively. Binding was performed in binding buffer (50 mM Tris, 5 mM MgCl2, 2.5 mM EDTA, and 0.5% (wt/vol) fatty acid free BSA, pH 7.4 for CB1 receptor and 50 mM Tris, 5 mM MgCl2, 2.5 mM EGTA, and 0.1% (wt/vol) fatty acid free BSA, pH 7.4 for CB2 receptor) in a total volume of 0.2 mL for 1 h at 30° C. shaking. The reaction was terminated by rapid filtration through microfiltration plates coated with 0.5% polyethylenimine (UniFilter GF/B filter plate; Packard). Bound radioactivity was analyzed for Ki using nonlinear regression analysis (Activity Base, ID Business Solution, Limited), with the Kd values for [^3H]CP55,940 determined from saturation experiments.

The target of assay [2] is human CB1 receptor (CNR1) (Homo sapiens (Human), UniProt P21554). Description: Radioligand binding assay ([3H]-CP-55,940), membranes of HEK cells expressing human CNR1. The conditions noted are these: 1.5 nM [3H]-CP-55,940, HEK cell membranes, 1 h at 30° C. The procedure:
as §1, §2

Sequence of human CB1 receptor (CNR1) (P21554 whole entry): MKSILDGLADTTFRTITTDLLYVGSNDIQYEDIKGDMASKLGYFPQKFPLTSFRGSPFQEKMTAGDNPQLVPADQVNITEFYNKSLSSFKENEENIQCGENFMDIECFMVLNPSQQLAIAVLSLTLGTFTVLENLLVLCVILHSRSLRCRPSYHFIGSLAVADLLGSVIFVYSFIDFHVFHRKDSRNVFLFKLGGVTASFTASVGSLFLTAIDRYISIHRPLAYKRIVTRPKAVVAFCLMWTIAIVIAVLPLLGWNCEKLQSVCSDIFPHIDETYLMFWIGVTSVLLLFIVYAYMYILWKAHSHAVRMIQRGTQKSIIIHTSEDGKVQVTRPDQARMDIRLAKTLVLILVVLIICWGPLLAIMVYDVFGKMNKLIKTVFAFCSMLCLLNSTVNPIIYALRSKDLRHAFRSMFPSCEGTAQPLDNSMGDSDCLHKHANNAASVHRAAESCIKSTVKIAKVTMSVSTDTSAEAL
Sequence of human CB2 receptor (CNR2) (P34972 whole entry): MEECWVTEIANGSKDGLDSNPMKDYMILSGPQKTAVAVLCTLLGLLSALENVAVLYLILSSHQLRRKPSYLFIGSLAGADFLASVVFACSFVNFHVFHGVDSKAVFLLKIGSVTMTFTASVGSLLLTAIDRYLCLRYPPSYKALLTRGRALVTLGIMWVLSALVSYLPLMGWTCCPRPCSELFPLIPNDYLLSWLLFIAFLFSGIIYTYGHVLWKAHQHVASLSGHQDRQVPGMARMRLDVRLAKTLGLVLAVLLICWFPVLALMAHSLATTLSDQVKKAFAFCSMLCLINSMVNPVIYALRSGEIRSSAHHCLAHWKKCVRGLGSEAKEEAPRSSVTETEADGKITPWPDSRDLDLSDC

In the case of “5-tert-butyl-7-(3,3-Difluoropyrrolidin-1-yl)-3-[[2-(pyridin-2-yldisulfanyl)phenyl]methyl]triazolo[4,5-d]pyrimidine [Example 37]”, the inhibition constant Ki in assay [1] turned out to be 541 nM; in assay [2], 2580 nM.
Take `Cc1nonc1Cn1nnc2c(N3CC[C@H](S)C3)nc(C(C)(C)C)nc21` (single isomer, unassigned) [Example 10]: the Ki in assay [1] was 153 nM; in assay [2], above 10000 nM.
In the same order, the values of `CC(C)(C)c1nc(N2CC[C@H](S)C2)c2nnn(Cc3ccccc3Cl)c2n1` (single isomer, unassigned) [Example 12] are 2500 nM and 2810 nM.
In the same order, the values of `CC(C)(C)c1nc(N2CC[C@@H](S)C2)c2nnn(Cc3ccccc3Cl)c2n1` (single isomer, unassigned) [Example 13] are 1560 nM and above 10000 nM.
Turning to `CC(C)(C)c1nc(N2CC[C@H](O)C2)c2nnn(Cc3ccccc3S(=O)(=O)F)c2n1` [Example 1, 2-[[5-tert-Butyl-7-[(3S)-3-hydroxypyrrolidin-1-yl]triazolo[4,5-d]pyrimidin-3-yl]methyl]benzenesulfonyl fluoride], the Ki in assay [1] was 16 nM; in assay [2], above 10000 nM.
With `CC(C)(C)c1nc(N2CCC(F)(F)C2)c2nnn(Cc3ccccc3CS(=O)(=O)F)c2n1` [Example 2, (2-{[5-tert-Butyl-7-(3,3-difluoropyrrolidin-1-yl)-3H-[1,2,3]triazolo[4,5-d]pyrimidin-3-yl]methyl}phenyl)methanesulfonyl fluoride], the results for the inhibition constant Ki in assay [1] and in assay [2] were 11 nM and 1960 nM, respectively.
In the same order, the values of `CC(C)(C)c1nc(N2CC[C@H](O)C2)c2nnn(Cc3ccccc3CS(=O)(=O)F)c2n1` [Example 3, [2-({5-tert-Butyl-7-[(3S)-3-hydroxypyrrolidin-1-yl]-3H-[1,2,3]1 triazolo[4,5-d]pyrimidin-3-yl}methyl)phenyl]methanesulfonyl fluoride] are 283 nM and above 10000 nM.
In the same order, the values of `CC(C)(C)c1nc(N2CCC(F)(F)C2)c2nnn(Cc3ccccc3CN=C=S)c2n1` [Example 4, 5-tert-Butyl-7-(3,3-difluoropyrrolidin-1-yl)-3-{[2-(isothiocyanatomethyl)phenyl]methyl}-3H-[1,2,3]triazolo[4,5-d]pyrimidine] are 88 nM and 3830 nM.
For the compound `CC(C)(C)c1nc(N2CC[C@H](O)C2)c2nnn(Cc3ccccc3CN=C=S)c2n1` [Example 5, (3S)-1-(5-tert-Butyl-3-{[2-(isothiocyanatomethyl)phenyl]methyl}-3H-[1,2,3]triazolo[4,5-d]pyrimidin-7-yl)pyrrolidin-3-ol], the Ki in assay [1] was 91 nM; in assay [2], above 10000 nM.
For the compound `CC(C)(C)c1nc(N2CCC(F)(F)C2)c2nnn(Cc3ccccc3N=C=S)c2n1` [Example 6, 5-tert-Butyl-7-(3,3-difluoropyrrolidin-1-yl)-3-[(2-isothiocyanatophenyl)methyl]-3H-[1,2,3]triazolo[4,5-d]pyrimidine], the inhibitory constant (Ki) in assay [1] amounted to 300 nM; in assay [2], 5360 nM.
In the same order, the values of `CC(C)(C)c1nc(N2CCC(F)(F)C2)c2nnn(Cc3ccccc3S(=O)(=O)F)c2n1` [Example 7, 2-{[5-tert-Butyl-7-(3,3-difluoropyrrolidin-1-yl)-3H-[1,2,3]triazolo[4,5-d]pyrimidin-3-yl]methyl}benzene-1-sulfonyl fluoride] are 6 nM and 931 nM.
As for `CC(C)(C)c1nc(N2CCC(S)C2)c2nnn(Cc3ccccc3Cl)c2n1` (stereo not drawn) [Example 8, 1-{5-tert-Butyl-3-[(2-chlorophenyl)methyl]-3H-[1,2,3]triazolo[4,5-d]pyrimidin-7-yl}pyrrolidine-3-thiol], the Ki in assay [1] stood at 85 nM; in assay [2], 1470 nM.
On to `CC(C)(C)c1nc(N2CC(S)C2)c2nnn(Cc3ccccc3Cl)c2n1` [Example 9, 1-{5-tert-Butyl-3-[(2-chlorophenyl)methyl]-3H-[1,2,3]triazolo[4,5-d]pyrimidin-7-yl}azetidine-3-thiol], for which the Ki in assay [1] is 383 nM; in assay [2], above 10000 nM.
In the same order, the values of `Cc1nonc1Cn1nnc2c(N3CCC(N=[N+]=[N-])C3)nc(C(C)(C)C)nc21` (stereo not drawn) [Example 14, 7-(3-Azidopyrrolidin-1-yl)-5-tert-butyl-3-[(4-methyl-1,2,5-oxadiazol-3-yl)methyl]-3H-[1,2,3]triazolo[4,5-d]pyrimidine] are 137 nM and above 10000 nM.
With `Cc1nonc1Cn1nnc2c(N3CCC(N=C=S)C3)nc(C(C)(C)C)nc21` (stereo not drawn) [Example 16, 5-tert-Butyl-7-(3-isothiocyanatopyrrolidin-1-yl)-3-[(4-methyl-1,2,5-oxadiazol-3-yl)methyl]-3H-[1,2,3]triazolo[4,5-d]pyrimidine], the values for the inhibition constant (Ki) in assay [1] and in assay [2] were 426 nM and above 10000 nM, respectively.
Take `CC(C)(C)c1nc(N2CCC(N=[N+]=[N-])C2)c2nnn(Cc3ccccc3Cl)c2n1` (stereo not drawn) [Example 17, 7-(3-Azidopyrrolidin-1-yl)-5-tert-butyl-3-[(2-chlorophenyl)methyl]-3H-[1,2,3]triazolo[4,5-d]pyrimidine]: the Ki in assay [1] was 210 nM; in assay [2], 2290 nM.
In the same order, the values of `CSSC1CCN(c2nc(C(F)(F)c3ccccc3)nc3c2nnn3Cc2nonc2C)C1` (stereo not drawn) [Example 18, 5-[Difluoro(phenyl)methyl]-7-[3-(methyldisulfanyl)pyrrolidin-1-yl]-3-[(4-methyl-1,2,5-oxadiazol-3-yl)methyl]-3H-[1,2,3]triazolo[4,5-d]pyrimidine] are 1030 nM and above 10000 nM.
In the same order, the values of `CSSC1CCN(c2nc(C(F)(F)c3ccccc3)nc3c2nnn3Cc2ccccc2Cl)C1` (stereo not drawn) [Example 19, 3-[(2-Chlorophenyl)methyl]-5-[difluoro(phenyl)methyl]-7-[3-(methyldisulfanyl)pyrrolidin-1-yl]-3H-[1,2,3]triazolo[4,5-d]pyrimidine] are 1370 nM and above 10000 nM.
As to `Cc1nonc1Cn1nnc2c(N3CCC(N=[N+]=[N-])C3)nc(C(F)(F)c3ccccc3)nc21` (stereo not drawn) [Example 20, 7-(3-Azidopyrrolidin-1-yl)-5-[difluoro(phenyl)methyl]-3-[(4-methyl-1,2,5-oxadiazol-3-yl)methyl]-3H-[1,2,3]triazolo[4,5-d]pyrimidine], the inhibitory constant (Ki) in assay [1] is 1300 nM; in assay [2], above 10000 nM.
In the same order, the values of `[N-]=[N+]=NC1CCN(c2nc(C(F)(F)c3ccccc3)nc3c2nnn3Cc2ccccc2Cl)C1` (stereo not drawn) [Example 21, 7-(3-Azidopyrrolidin-1-yl)-3-[(2-chlorophenyl)methyl]-5-[difluoro(phenyl)methyl]-3H-[1,2,3]triazolo[4,5-d]pyrimidine] are 729 nM and 2450 nM.
In the same order, the values of `FC(F)(c1ccccc1)c1nc(N2CCC(N=C=S)C2)c2nnn(Cc3ccccc3Cl)c2n1` (stereo not drawn) [Example 22, 3-[(2-Chlorophenyl)methyl]-5-[difluoro(phenyl)methyl]-7-(3-isothiocyanatopyrrolidin-1-yl)-3H-[1,2,3]triazolo[4,5-d]pyrimidine] are 1240 nM and 6440 nM.
For `Cc1nonc1Cn1nnc2c(N3CCC(N=C=S)C3)nc(C(F)(F)c3ccccc3)nc21` (stereo not drawn) [Example 23, 5-[Difluoro(phenyl)methyl]-7-(3-isothiocyanatopyrrolidin-1-yl)-3-[(4-methyl-1,2,5-oxadiazol-3-yl)methyl]-3H-[1,2,3]triazolo[4,5-d]pyrimidine], the results for the Ki in assay [1] and in assay [2] were 1460 nM and 1450 nM, respectively.
In the same order, the values of `O=S(=O)(F)c1ccccc1Cn1nnc2c(N3CC[C@H](O)C3)nc(C(F)(F)c3ccccc3)nc21` [Example 24, 2-[[5-[Difluoro(phenyl)methyl]-7-[(3S)-3-hydroxypyrrolidin-1-yl]triazolo[4,5-d]pyrimidin-3-yl]methyl]benzenesulfonyl fluoride] are 1130 nM and 3290 nM.
In the case of `CC(C)(C)c1nc(N2CCC(F)(F)C2)c2nnn(Cc3ccccc3CSSCCO)c2n1` [Example 25, 2-[[2-[[5-tert-Butyl-7-(3,3-difluoropyrrolidin-1-yl)triazolo[4,5-d]pyrimidin-3-yl]methyl]phenyl]methyldisulfanyl]ethanol], the inhibition constant (Ki) in assay [1] worked out at 9 nM; in assay [2] it was 211 nM.
In the same order, the values of `O=S(=O)(F)c1ccccc1Cn1nnc2c(N3CCC(F)(F)C3)nc(C(F)(F)c3ccccc3)nc21` [Example 26, 2-[[5-[Difluoro(phenyl)methyl]-7-(3,3-difluoropyrrolidin-1-yl)triazolo[4,5-d]pyrimidin-3-yl]methyl]benzenesulfonyl fluoride] are 630 nM and above 10000 nM.
In the same order, the values of `FC1(F)CCN(c2nc(C(F)(F)c3ccccc3)nc3c2nnn3Cc2ccccc2CCSSc2ccccn2)C1` [Example 27, 5-[Difluoro(phenyl)methyl]-7-(3,3-difluoropyrrolidin-1-yl)-3-[[2-[2-(pyridin-2-yldisulfanyl)ethyl]phenyl]methyl]triazolo[4,5-d]pyrimidine] are 262 nM and 3040 nM.
Turning to `OCCSSCCc1ccccc1Cn1nnc2c(N3CCC(F)(F)C3)nc(C(F)(F)c3ccccc3)nc21` [Example 28, 2-[2-[2-[[5-[Difluoro(phenyl)methyl]-7-(3,3-difluoropyrrolidin-1-yl)triazolo[4,5-d]pyrimidin-3-yl]methyl]phenyl]ethyldisulfanyl]ethanol], the results for the inhibition constant (Ki) in assay [1] and in assay [2] were 138 nM and 1080 nM, respectively.

One may read the Ki as the equilibrium dissociation constant of an inhibitor or competing ligand from its target. A low value points to higher affinity.

For the origin of these results see patent US10457685B2, “[1,2,3]triazolo[4,5-D]pyrimidine derivatives with affinity for the type-2 cannabinoid receptor” (Hoffmann-La Roche Inc., priority 2016, dated 2019).
